Experiment: RiboGreen assay of siRNA encapsulation efficiency, in vivo formulations of Lipid-Based Particles
Format: physicochemical
Conditions: lipid:siRNA 25:1
In short: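 RiboGreen fluorescence (480/520 nm) quantifies siRNA before and after release from particles with ethanol, Triton X-100 or phenol/chloroform. Particles formed by ethanol-injection of lipid into pH 4.0 citrate buffer containing siRNA at 65 °C, diluted in PBS pH 7.4, diafiltered (100K) and sterile-filtered.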

## CCCCC/C=C\C/C=C\CCCCCCCCOCC(CCN1CCCC1)OCCCCCCCC/C=C\C/C=C\CCCCC (stereo not shown) [Example 24, 1-{3,4-bis[(9Z,12Z)-octadeca-9,12-dienyloxy]butyl}pyrrolidine]
In vivo formulation A: Cationic lipid/Example 73/DSPC/Chol 45/10/15/30 wt %
  % Encapsulation Efficiency: 96.6%
In vivo formulation B: Cationic lipid/PEG-cholesterol/DSPC/Chol 45/10/15/30 wt %
  % Encapsulation Efficiency: 89.3%
In vivo formulation C: Cationic lipid/Pal-PEG-Cera/DSPC/Chol 45/10/15/30 wt %
  % Encapsulation Efficiency: 97.8%
In vivo formulation D: Cationic lipid/Example 66/DSPC/Chol 45/10/15/30 wt %
  % Encapsulation Efficiency: 97.0%
In vivo formulation E: Cationic lipid/Example 53/DSPC/Chol 45/10/15/30 wt %
  % Encapsulation Efficiency: 79.3%
In vivo formulation F: Cationic lipid/Example 54/DSPC/Chol 45/10/15/30 wt %
  % Encapsulation Efficiency: 96.1%
In vivo formulation G: Cationic lipid/Example 55/DSPC/Chol 45/10/15/30 wt %
  % Encapsulation Efficiency: 96.7%
In vivo formulation H: Cationic lipid/PEG-DMPE/DSPC/Chol 45/10/15/30 wt %
  % Encapsulation Efficiency: 97.3%
In vivo formulation I: Cationic lipid/PEG-DPPE/DSPC/Chol 45/10/15/30 wt %
  % Encapsulation Efficiency: 92%
In vivo formulation J: Cationic lipid/PEG-DSPE/DSPC/Chol 45/10/15/30 wt %
  % Encapsulation Efficiency: 100%
In vivo formulation K: Cationic lipid/PEG-DMG/DSPC/Chol 45/10/15/30 wt %
  % Encapsulation Efficiency: 99.5%
In vivo formulation L: Cationic lipid/PEG-DPG/DSPC/Chol 45/10/15/30 wt %
  % Encapsulation Efficiency: 90%
In vivo formulation M: Cationic lipid/PEG-DSG/DSPC/Chol 45/10/15/30 wt %
  % Encapsulation Efficiency: 100%
In vivo formulation NN: Cationic lipid/Example 74/DSPC/Chol 45/10/15/30 wt %
  % Encapsulation Efficiency: 97.3%
In vivo formulation OO: Cationic lipid/Example 75/DSPC/Chol 45/10/15/30 wt %
  % Encapsulation Efficiency: 99.5%
In vivo formulation P: Cationic lipid/PEG-DSPE/DOPE/Chol 45/10/15/30 wt %
  % Encapsulation Efficiency: 97%
In vivo formulation PP: Cationic lipid/Example 73/Chol 45/10/45 wt %
  % Encapsulation Efficiency: 97.4%
In vivo formulation Q: Cationic lipid/PEG-DSPE/DOPC/Chol 45/10/15/30 wt %
  % Encapsulation Efficiency: 97%
In vivo formulation R: Cationic lipid/PEG-DSPE/SPC/Chol 45/10/15/30 wt %
  % Encapsulation Efficiency: 97%

From patent US20100055169A1, “CATIONIC LIPIDS AND USES THEREOF” (ABBOTT LABORATORIES, priority 2008, published 2010)
